In PMC7332792 (Acta Pharmaceutica Sinica. B, 2020):
Bridge positions count the residues as written; N and C are the ends. Ends that are not written are not given here.

T1: human LAG-3 protein (human, UniProt P18627, labeled with Red-NHS647 dye (in the MST assay))
T1 sequence: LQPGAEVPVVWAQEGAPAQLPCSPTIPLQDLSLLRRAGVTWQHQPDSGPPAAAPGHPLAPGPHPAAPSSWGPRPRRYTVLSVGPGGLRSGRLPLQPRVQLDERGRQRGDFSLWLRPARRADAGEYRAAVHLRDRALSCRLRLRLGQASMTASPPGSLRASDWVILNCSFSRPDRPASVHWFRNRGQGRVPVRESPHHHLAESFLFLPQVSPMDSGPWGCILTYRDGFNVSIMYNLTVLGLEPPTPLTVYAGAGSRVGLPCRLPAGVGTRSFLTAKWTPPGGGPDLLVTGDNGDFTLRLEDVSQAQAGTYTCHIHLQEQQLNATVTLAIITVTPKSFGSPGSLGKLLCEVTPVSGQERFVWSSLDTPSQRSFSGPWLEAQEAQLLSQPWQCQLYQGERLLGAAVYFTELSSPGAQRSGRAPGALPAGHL


Columns and labels:
human LAG-3 protein = target: T1, human LAG-3 protein; test: MST

Molecule	immune response (immunogenicity) in mice (mice with or without CT26 xenograft)	IgG levels in the blood (naïve mice and CT26 tumor bearing mice after 14 days of C25 treatment, ELISA, versus control, n = 5)	Kd (human LAG-3 protein) [µM]
CSCC[C@@H]1NC(=O)[C@@H]2CCCN2C(=O)[C@H](C(C)C)NC(=O)[C@@H](N)CSSC[C@@H](C(=O)O)NC(=O)[C@H](C)NC(=O)[C@H](CCCNC(=N)N)NC(=O)[C@H](Cc2ccc(O)cc2)NC(=O)[C@H]([C@@H](C)O)NC1=O [C25]	did not cause significant immune response in mice	not significantly different from those in the control group	
CNMHTPMVC (disulfide 1-9) [cyclic peptide C17]			1.83
CNWMINKEC (disulfide 1-9) [cyclic peptide C19]			5.05
